In the METLIN SMRT retention time set (Domingo-Almenara et al. 2019):

Experiment: gradient 5% acetonitrile 3 min, to 50% in 2 min, to 85% in 15 min, held 3 min, 100 µL/min
Settings: column: Zorbax Extend-C18 2.1 x 50 mm; eluents: water / acetonitrile, 0.1% formic acid
In short: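 Each retention time is based on an adduct peak selected computationally and verified by manual inspection. Measurements used HPLC–quadrupole time-of-flight mass spectrometry in positive and negative ionization mode on mixtures of ~100 pure standards. Chromatography ran on a Zorbax Extend-C18 column (2.1 × 50 mm, 1.8 μm) at 100 μL/min with water and acetonitrile, each containing 0.1% formic acid, and dead and dwell volumes of 40 μL and 900 μL.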

Work on `Cc1ccc(NC(=O)C2CCCN2S(=O)(=O)c2cc3c(cc2C)NC(=O)CO3)cc1C` (stereo not given) yielded an RP-LC retention time of 794 s.
With `Cn1cnc(S(=O)(=O)N2CCC(C(=O)N3CCN(c4cccc(C(F)(F)F)c4)CC3)CC2)c1` the RP-LC retention time was 823 s.
For `O=C(c1ccoc1)N1CCOc2ccc(N3CCOCC3)cc2C1`, the RP-LC retention time was 678 s.
`O=C(c1ccco1)N1CCC[C@H]1c1nc(-c2ccccc2)n[nH]1` showed an RP-LC retention time of 652 s.
Compound `CCc1nncn1C1CCN(S(=O)(=O)c2cc(C)ccc2C)CC1` has an RP-LC retention time of 752 s.
Work on `CC1=C(c2ccc(F)cc2)S(=O)(=O)N=C1N1CCCN(C(=O)NC(C)(C)C)CC1` yielded an RP-LC retention time of 602 s.
Work on `COc1cccc(N2CCN(C(=O)c3cn(-c4ccc(NC(=O)C5CC5)cn4)cn3)CC2)c1` yielded an RP-LC retention time of 743 s.
In the case of `O=C(NCc1cccc(Br)c1)C1CCCN(c2nccnc2Sc2ccccc2)C1` (stereo not given), the RP-LC retention time is reported as 1130 s.
`C#CCn1c(=O)c2c(ncn2C)n(C)c1=O` gave an RP-LC retention time of 629 s.
In the case of `CCc1ccccc1NC(=O)C1CCCN(S(=O)(=O)c2cc(-c3noc(C)n3)cs2)C1` (stereo not given), the RP-LC retention time is reported as 974 s.
In the case of `CCCNC(=O)N1CC(Oc2cccc(-c3nc(C)no3)c2)C1`, the RP-LC retention time is reported as 730 s.
For `Cn1cnc(S(=O)(=O)NCCN2C(=O)C3(CCCCC3)C2c2ccccc2)c1` (stereo not given), the RP-LC retention time was 722 s.
Work on `CCn1c(CC2CCN(C(=O)c3nccc4ccccc34)C2)nc2cccnc21` (stereo not given) yielded an RP-LC retention time of 587 s.
Compound `Cc1cccc(-c2nsc(SCC(=O)N3CCc4ccccc43)n2)c1` has an RP-LC retention time of 1150 s.
Work on `Cc1c(F)cccc1NC(=O)Nc1ccc2nncn2c1` yielded an RP-LC retention time of 660 s.
`CCN(CC)CCN1C(=O)c2ccccc2NC1c1ccc(F)cc1` (stereo not given) showed an RP-LC retention time of 641 s.
`O=C(c1ccc(-c2cccs2)nc1)N1CCN(c2ccc(F)cc2)CC1` showed an RP-LC retention time of 950 s.
Work on `Cc1nc2c(NS(=O)(=O)c3ccc(F)c(C)c3)cccn2n1` yielded an RP-LC retention time of 784 s.
Work on `O=C(CCc1conc1-c1ccc(F)cc1)NCc1ccc(F)cc1` yielded an RP-LC retention time of 886 s.
With `Cc1cc2c(c(C#N)c1C)NC=NC2C` (stereo not given) the RP-LC retention time was 641 s.
In the case of `O=S(=O)(Cc1ccc(F)cc1)NCC1(c2ccccc2)CCOCC1`, the RP-LC retention time is reported as 818 s.
`O=C(NC1CCCCC1)c1nc(-c2ccncc2)cs1` showed an RP-LC retention time of 660 s.
`CCn1c(=O)c(C(=O)NCCN2CCc3ccccc3C2)nc2cccnc21` gave an RP-LC retention time of 620 s.
Compound `CCc1ccc(CNC(=O)C2CCN(C(=O)c3ncn4c3COC(c3ccc(C)cc3)C4)CC2)cc1` (stereo not given) has an RP-LC retention time of 853 s.
Compound `CC(=O)Nc1ccc(S(=O)(=O)N2CC=C(c3cn(C)c4ncccc34)CC2)cc1` has an RP-LC retention time of 764 s.
Work on `O=C1[C@H]2CN(Cc3ccc(F)cc3Cl)C[C@H]2C(=O)N1Cc1ccc2c(c1)OCO2` yielded an RP-LC retention time of 992 s.
`CCc1nnc(-c2cc(NS(=O)(=O)CC)c(C)s2)o1` gave an RP-LC retention time of 810 s.
Compound `CCC(=O)N1CCc2c(C(=O)N3CCOCC3)cccc21` has an RP-LC retention time of 630 s.
In the case of `CCN1CCN(c2nc(F)c(F)c(S(=O)(=O)CCN3C(=O)CCC3=O)c2F)CC1`, the RP-LC retention time is reported as 582 s.
Compound `Cc1cccc(CN2C(=O)CN(S(C)(=O)=O)CC2(C)C(=O)NCc2ccc(F)cc2)c1` (stereo not given) has an RP-LC retention time of 856 s.
With `Cc1ccc2c(c1)N(C(=O)Cn1cccc1-c1nc(-c3ccc4c(c3)OCO4)no1)CCO2` the RP-LC retention time was 1160 s.
With `CCNc1cc(N2CCC(CCC(=O)NCc3cc(F)cc(F)c3)CC2)ncn1` the RP-LC retention time was 669 s.
`CCOC(=O)Cc1csc2nc(-c3ccccc3)nn12` showed an RP-LC retention time of 960 s.
With `CCC(=O)Nc1ccc2c(c1)CN(C(=O)c1cccc(Cl)c1)C(C(=O)N1CCCC1)C2` (stereo not given) the RP-LC retention time was 1070 s.
Work on `O=C(NCCc1cccs1)c1nnc(-c2ccc(S(=O)(=O)N3CCCC3)cc2)o1` yielded an RP-LC retention time of 889 s.
Compound `COc1ccc(NC(=O)N2CC(N(C3CCOCC3)S(C)(=O)=O)C2)c(C)c1` has an RP-LC retention time of 664 s.
In the case of `Cc1ccc(C(=O)N2CCCn3cc(-c4cccc(C#N)c4)nc32)cn1`, the RP-LC retention time is reported as 636 s.
In the case of `CS(=O)(=O)Nc1cccc(NC(=O)Cc2csc(NC(=O)c3ccsc3)n2)c1`, the RP-LC retention time is reported as 676 s.
For `O=C(NCc1n[nH]c(=O)c2ccccc12)C(=O)N1CCCCC1`, the RP-LC retention time was 603 s.
`Cc1nn(C)c(C)c1CCN(C)C(=O)CC1=C2CCCCC2N(C(C)C)C1=O` (stereo not given) showed an RP-LC retention time of 648 s.
Work on `Cn1c(C(=O)N2CCN(c3ccccn3)CC2)c(N2CCCC2=O)c2cc(F)ccc21` yielded an RP-LC retention time of 635 s.
`CCN1CCC(N(Cc2ccc3c(c2)OCO3)C(=O)Nc2ccc(OC)cc2)CC1` gave an RP-LC retention time of 641 s.
In the case of `O=S(=O)(Cc1ccc(Cl)cc1)N1CCC(n2c(-c3ccco3)nc3cccnc32)C1` (stereo not given), the RP-LC retention time is reported as 927 s.
Work on `Cc1ccc(C(=O)Nc2cnc(N3CCCCC3)nc2)s1` yielded an RP-LC retention time of 822 s.
Compound `N#Cc1cccc(C(=O)NC2CCN(C(=O)C3CC3)C2)c1` (stereo not given) has an RP-LC retention time of 651 s.
`O=C(Nc1cc(C(F)(F)F)ccc1Cl)c1ccc(N2C(=O)CCC2=O)cc1` gave an RP-LC retention time of 821 s.
In the case of `CC(=O)CC(=O)Nc1ccc2ccccc2c1`, the RP-LC retention time is reported as 800 s.
Work on `Cc1ccc(CN2CCn3nnc(CCC(=O)N4CCCC4)c3C2)s1` yielded an RP-LC retention time of 651 s.
`O=C1CCN(C(=O)C2COc3ccccc3O2)CCOCCN1` (stereo not given) gave an RP-LC retention time of 634 s.
Work on `Cc1cc(C)n(-c2ccc(SCC(=O)N3CCCc4ccccc43)nn2)n1` yielded an RP-LC retention time of 914 s.
`O=C(c1cccc(Cl)c1)N1CCC2(CC1)OCC(C(=O)N1CCCC1)N2C(=O)c1cccc(F)c1` (stereo not given) showed an RP-LC retention time of 765 s.
In the case of `CCOC(=O)c1csc(-n2nc(C(F)(F)F)cc2-c2ccc(OC)cc2)n1`, the RP-LC retention time is reported as 1280 s.
`Cc1cnc(-c2ccccc2)n1C1CN(Cc2ccc(F)cc2F)C1` gave an RP-LC retention time of 572 s.
Work on `CC(=O)N1CCc2sc(C(=O)NCc3cccc(Br)c3)cc2C1` yielded an RP-LC retention time of 768 s.
In the case of `CCCNC(=O)C1CCN(c2ccc(SCC(=O)Nc3cc(F)cc(F)c3)nn2)CC1`, the RP-LC retention time is reported as 665 s.
`CC(Oc1ccc(Cl)cc1)C(=O)NCC1CCOCC1` (stereo not given) showed an RP-LC retention time of 782 s.
In the case of `O=C(NCc1cccs1)c1ccc2c(c1)NC(=O)C1CCCCN21` (stereo not given), the RP-LC retention time is reported as 688 s.
`O=C1c2ccccc2C(=O)N1CCn1ncccc1=O` gave an RP-LC retention time of 603 s.
With `COc1ccc2c(c1)CCc1sc(NC(=O)c3ccccc3F)nc1-2` the RP-LC retention time was 1090 s.
In the case of `CN(C)C(=O)C1c2ccccc2CCN1CC(=O)N1CCN(c2ccc(Cl)cc2)CC1` (stereo not given), the RP-LC retention time is reported as 742 s.
For `CCCN1C(=O)COc2ccc(-c3noc(-c4ccc(CS(=O)(=O)c5ccccc5)cc4)n3)cc21`, the RP-LC retention time was 1130 s.
Work on `Cc1ccc(C2NC(=O)N(CC(=O)Nc3ccc4c(c3)OCO4)C3=C2C(=O)OC3)cc1` (stereo not given) yielded an RP-LC retention time of 746 s.
In the case of `COc1ccc2c(c1)c(CN1CCC(C(=O)NC3CCCCCC3)CC1)cn2C`, the RP-LC retention time is reported as 712 s.
For `CCN(CC)C(=O)N1CCCC(Cc2nncn2-c2ccccc2)C1` (stereo not given), the RP-LC retention time was 628 s.
`Cc1ccc(C)c(N2CCN(C(=O)C3CCN(c4nccnc4Sc4ccccc4)CC3)CC2)c1` showed an RP-LC retention time of 1320 s.
Compound `COc1cc2c(cc1OC)C(C(=O)N1CCOCC1)C(c1ccc(SC)cc1)N(C)C2=O` (stereo not given) has an RP-LC retention time of 726 s.
`CO/N=C1/C=C(C)C(=O)C(C)=C1C` showed an RP-LC retention time of 1040 s.
With `CCC(NC(=O)c1ccc2c(c1)nc1n2CCN(C2CCCCC2)C1=O)c1cccs1` (stereo not given) the RP-LC retention time was 851 s.
`O=C(NC1CC1)c1csc(N2CCCCC2)n1` gave an RP-LC retention time of 853 s.
In the case of `COC(=O)c1cnc2nc(C)ccc2c1Nc1ccc(Br)cc1`, the RP-LC retention time is reported as 705 s.
In the case of `COc1ccc(-c2nc3ccc(C)cn3c2Nc2ccc3c(c2)OCCO3)cc1`, the RP-LC retention time is reported as 692 s.
Work on `CCC(=O)N1CCCCCCNC(=O)[C@@H]2CCC[C@@H]21` yielded an RP-LC retention time of 657 s.
Work on `Cc1cnc(-n2nnc(C(=O)N3CCN(C(=O)c4ccco4)CC3)c2C)s1` yielded an RP-LC retention time of 687 s.
In the case of `COC(=O)c1ccc2c(=O)n(-c3ccccc3)c(N3CCCCCC3)nc2c1`, the RP-LC retention time is reported as 1240 s.
For `COc1cccc(S(=O)(=O)N2CCCC(Cn3c(C)nc4cccnc43)C2)c1` (stereo not given), the RP-LC retention time was 693 s.
`CCOc1cc(C(=O)Nc2nc(-c3ccc4c(c3)N(C)C(=O)CO4)cs2)cc(OCC)c1OCC` showed an RP-LC retention time of 1140 s.
For `COc1ccccc1N1CCN(S(=O)(=O)c2cc3n(c2)CCCNC3=O)CC1`, the RP-LC retention time was 696 s.
Compound `Cc1cccc(NC(=O)C2CC(=O)N(c3n[nH]c4cccc(F)c34)C2)c1` (stereo not given) has an RP-LC retention time of 759 s.
In the case of `CCOc1ccc(-n2c(=O)c3sccc3n(Cc3nc(-c4ccc(F)c(Cl)c4)no3)c2=O)cc1`, the RP-LC retention time is reported as 1140 s.
In the case of `Cc1cc(S(=O)(=O)N2CCCCC2c2nncn2C)ccc1F` (stereo not given), the RP-LC retention time is reported as 717 s.
`CCCn1c(=O)sc2cc(S(=O)(=O)N3CCC(C(=O)NC)CC3)ccc21` showed an RP-LC retention time of 730 s.
`Cc1ccc(S(=O)(=O)CC(=O)Nc2nc(-c3ccc4ccccc4c3)cs2)cc1` showed an RP-LC retention time of 1100 s.
In the case of `CCOc1ccccc1NC(=O)N1CCc2nc(OCCOC)ccc2C1`, the RP-LC retention time is reported as 871 s.
`O=C1CCCC(=O)N1CCS(=O)(=O)N1CCN(c2cccc(Cl)c2Cl)CC1` showed an RP-LC retention time of 887 s.
With `Cc1cccc(C)c1NC(=O)C1CCCN1S(=O)(=O)c1cc2c(cc1Cl)NC(=O)CO2` (stereo not given) the RP-LC retention time was 778 s.
Compound `Cc1sc(-c2cc(C(F)(F)F)on2)cc1S(=O)(=O)NCc1ccccc1Cl` has an RP-LC retention time of 1140 s.
For `CCC1Oc2ccc(S(=O)(=O)N3CCC(C(=O)Nc4ccccc4Cl)CC3)cc2NC1=O` (stereo not given), the RP-LC retention time was 907 s.
Work on `CCn1c(=O)c(N2CCN(C(=O)Nc3cc(Cl)c(OC)cc3OC)CC2)nc2cccnc21` yielded an RP-LC retention time of 982 s.
With `CC(C)C(NC(=O)c1ccco1)C(=O)N1CCC(c2noc(-c3ccccc3)n2)CC1` (stereo not given) the RP-LC retention time was 920 s.
Compound `COCCNC(=O)N1c2ccccc2NC2=C(C(=O)CC(C)(C)C2)C1c1ccccc1OC` (stereo not given) has an RP-LC retention time of 725 s.
